Literature values in US11718625B2, “Near-infrared fluorescent molecule active targeting folate receptor and preparation method thereof” (NANJING NUOYUAN MEDICAL DEVICES CO., LTD, priority 2020, dated 2023).

How the values were obtained:
[1] = at maximum injection dosage less than 2 mg/kg; literature report and own detection data
tumor = settings: clinical practice

CC1(C)C(/C=C/C=C/C=C/C=C2\N(CCCCS(=O)(=O)O)c3ccc4ccccc4c3C2(C)C)=[N+](CCCCS(=O)(=O)[O-])c2ccc3ccccc3c21 [ICG, Indocyanine green]
quantum yield (in an aqueous solution): less than 1% | wavelength of emitted fluorescence (under irradiation with the wavelength of 780 nm): 830 nm | concentration of the ICG in the human body tumors [1]: 10 to 1000 nM | waiting time to generate sufficient fluorescence contrast (tumor: normal tissue) (tumor): at least 12 hours
